Assay results reported in US20080025960A1, “Detergents with stabilized enzyme systems” (priority 2006, published 2008).

Molecular target: T1, choline oxidase (Arthrobacter globiformis, UniProt Q7X2H8)
T1 sequence (Q7X2H8 1-546): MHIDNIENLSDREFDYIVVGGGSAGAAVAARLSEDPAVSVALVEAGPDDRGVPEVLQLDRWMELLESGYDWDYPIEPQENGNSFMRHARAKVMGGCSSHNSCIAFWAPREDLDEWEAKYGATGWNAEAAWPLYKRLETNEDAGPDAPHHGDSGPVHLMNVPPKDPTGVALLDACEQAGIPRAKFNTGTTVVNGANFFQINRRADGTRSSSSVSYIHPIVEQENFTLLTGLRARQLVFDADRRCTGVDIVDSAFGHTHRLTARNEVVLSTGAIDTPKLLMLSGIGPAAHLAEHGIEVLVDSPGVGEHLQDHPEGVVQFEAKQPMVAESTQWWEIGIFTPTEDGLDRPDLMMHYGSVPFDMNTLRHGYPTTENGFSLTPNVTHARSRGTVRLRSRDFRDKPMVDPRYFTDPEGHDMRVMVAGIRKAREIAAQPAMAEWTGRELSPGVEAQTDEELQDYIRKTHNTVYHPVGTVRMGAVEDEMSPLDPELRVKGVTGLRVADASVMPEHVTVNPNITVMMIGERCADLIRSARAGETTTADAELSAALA
Assay: H2O2 in wash liquor with choline oxidase, choline chloride and inhibitor
Type: biochemical
Conditions: 2 mM choline chloride, 0.02U choline oxidase, 0.2 mM sodium bisulfite inhibitor (pH7)
Protocol: The experiments were conducted as described in Example 1. Choline oxidase produces two moles of H2O2 per mole of choline. The results obtained in these experiments confirmed that choline oxidase was stable in AATCC detergent over 24 hour period tested in presence of choline and inhibitors. […] Upon dilution in wash liquor, detergent containing choline oxidase, choline chloride and an inhibitor (e.g., sodium hydrogen sulfite or 2-amino,2-methyl,1-propanol) produced H2O2 over time, as indicated in Table 5.

O=S([O-])O.[Na+] [bisulfite, sodium hydrogen sulfite]
H2O2 PPM (AATCC Detergent, T = 0+): 1 PPM | H2O2 PPM (AATCC Detergent, T = 12 min): 10 PPM | H2O2 PPM (AATCC Detergent, T = 30 min): > 10 PPM | H2O2 PPM (AATCC Detergent, T = 60 min): 30 PPM | H2O2 PPM (Control Buffer, T = 0+): 1 PPM | H2O2 PPM (Control Buffer, T = 12 min): 10 PPM | H2O2 PPM (Control Buffer, T = 30 min): > 10 PPM | H2O2 PPM (Control Buffer, T = 60 min): 30 PPM
